Values of other authors in patent US20010036658A1, “Culture media for growing spirochetes” (priority 1997, published 2001).
Read-outs that look alike come from different tables or passages of the source.

COc1cccc2c1C(=O)c1c(O)c3c(c(O)c1C2=O)C[C@@](O)(C(=O)CO)C[C@@H]3O[C@H]1C[C@H](N)[C@H](O)[C@H](C)O1 [doxorubicin]
conversion of normal erythrocytes to echinocytes (erythrocytes): prevents | anti-bacterial activity (L-forms of bacteria; certain L-forms of bacteria): dramatic anti-bacterial activity | anti-bacterial activity (L-forms of bacteria; parent forms of the same bacteria): without any demonstrable effect
